Test: molar heat capacity at constant pressure
Conditions: Liquid, Flow calorimetry

CCCCCCCCCCCC(=O)OCC [ethyl dodecanoate]
Conditions | molar heat capacity at constant pressure [J/K/mol]
313.26 K, 5030 kPa | 472
313.26 K, 9990 kPa | 471
313.27 K, 140 kPa | 474
313.27 K, 14970 kPa | 470
313.28 K, 25150 kPa | 469
313.29 K, 20040 kPa | 470
323.22 K, 160 kPa | 480
323.22 K, 20140 kPa | 475
323.22 K, 25150 kPa | 474
323.23 K, 4980 kPa | 478
323.23 K, 10110 kPa | 477
323.23 K, 14920 kPa | 476
333.2 K, 140 kPa | 487
333.2 K, 4920 kPa | 485
333.2 K, 10150 kPa | 483
333.2 K, 15060 kPa | 482
333.2 K, 19970 kPa | 481
333.21 K, 25020 kPa | 480
343.15 K, 140 kPa | 493
343.16 K, 5160 kPa | 491
343.16 K, 10270 kPa | 489
343.19 K, 15130 kPa | 488
343.19 K, 20220 kPa | 487
343.21 K, 25180 kPa | 486
353.14 K, 180 kPa | 501
353.14 K, 4970 kPa | 498
353.17 K, 9950 kPa | 496
353.17 K, 14920 kPa | 494
353.17 K, 20020 kPa | 492
353.18 K, 24950 kPa | 491
363.17 K, 110 kPa | 508
363.18 K, 5010 kPa | 507
363.29 K, 10190 kPa | 505
363.29 K, 15070 kPa | 503
363.29 K, 20150 kPa | 501
363.29 K, 25100 kPa | 500
373.19 K, 110 kPa | 516
373.2 K, 4900 kPa | 514
373.21 K, 10170 kPa | 512
373.21 K, 15020 kPa | 511
373.22 K, 19850 kPa | 509
373.25 K, 24930 kPa | 508
383.23 K, 100 kPa | 523
383.23 K, 5000 kPa | 521
383.23 K, 10040 kPa | 520
383.24 K, 15080 kPa | 518
383.25 K, 19940 kPa | 517
383.28 K, 25150 kPa | 515
393.2 K, 4910 kPa | 530
393.22 K, 110 kPa | 532
393.22 K, 10100 kPa | 530
393.23 K, 19780 kPa | 528
393.27 K, 15020 kPa | 529
393.27 K, 24830 kPa | 527

CCCCCCCCC(=O)OCC [ethyl nonanoate]
Conditions | molar heat capacity at constant pressure [J/K/mol]
303.21 K, 15150 kPa | 369
303.22 K, 9980 kPa | 370
303.24 K, 20090 kPa | 369
303.25 K, 5000 kPa | 371
303.27 K, 24930 kPa | 368
303.31 K, 110 kPa | 371
313.21 K, 19900 kPa | 375
313.22 K, 14910 kPa | 376
313.23 K, 170 kPa | 377
313.24 K, 9850 kPa | 376
313.24 K, 24930 kPa | 374
313.26 K, 5090 kPa | 377
323.19 K, 4970 kPa | 385
323.22 K, 110 kPa | 386
323.22 K, 24920 kPa | 382
323.23 K, 10020 kPa | 384
323.24 K, 20090 kPa | 382
323.26 K, 15190 kPa | 383
333.16 K, 4930 kPa | 393
333.18 K, 140 kPa | 394
333.18 K, 9950 kPa | 393
333.19 K, 20150 kPa | 392
333.21 K, 15110 kPa | 393
333.23 K, 25020 kPa | 392
343.19 K, 5070 kPa | 400
343.19 K, 9940 kPa | 400
343.19 K, 14950 kPa | 400
343.2 K, 110 kPa | 401
343.21 K, 19870 kPa | 399
343.22 K, 25210 kPa | 399
353.11 K, 4910 kPa | 407
353.14 K, 160 kPa | 407
353.14 K, 10160 kPa | 406
353.15 K, 14930 kPa | 406
353.2 K, 20210 kPa | 405
353.23 K, 25190 kPa | 405
363.12 K, 110 kPa | 414
363.14 K, 5090 kPa | 413
363.16 K, 15060 kPa | 412
363.17 K, 10020 kPa | 413
363.17 K, 20130 kPa | 411
363.19 K, 25160 kPa | 410
373.12 K, 100 kPa | 420
373.12 K, 4830 kPa | 420
373.13 K, 10020 kPa | 419
373.13 K, 15150 kPa | 418
373.14 K, 20170 kPa | 418
373.14 K, 24950 kPa | 417
383.18 K, 160 kPa | 427
383.2 K, 4950 kPa | 426
383.2 K, 10190 kPa | 425
383.2 K, 15000 kPa | 425
383.22 K, 20130 kPa | 424
383.22 K, 24950 kPa | 424
393.18 K, 110 kPa | 434
393.18 K, 5090 kPa | 433
393.18 K, 10020 kPa | 433
393.19 K, 15150 kPa | 433
393.2 K, 20190 kPa | 432
393.24 K, 24960 kPa | 432

Reference: the NIST ThermoML archive (doi:10.1016/j.fluid.2018.09.017)
